In patent US7109193B2, “Tricyclic diazepines tocolytic oxytocin receptor antagonists” (Wyeth, priority 2001, dated 2006):

Target: T1, human vasopressin V2 receptor subtype (Homo sapiens, UniProt P30518)
T1 construct: host or cells: CHO cells (pZeoSV vector)
Assay: Vasopressin binding in Chinese Hamster Ovary cell membranes expressing human vasopressin V2 subtype receptors
Conditions: 100 nM, CHO cell membranes, [3H]arginine vasopressin, values without parentheses
In short: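 Radioligand displacement on membranes from CHO cells stably expressing human V2 receptor, 25 to 50 μg protein/well, in 50 mM Tris-HCl pH 7.4 with MgCl2, BSA and protease inhibitors. [^3H]arginine vasopressin (8 nM working solution) incubated 60 min at room temperature; bound label measured by filtration and scintillation counting.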

T1 sequence (P30518 whole entry): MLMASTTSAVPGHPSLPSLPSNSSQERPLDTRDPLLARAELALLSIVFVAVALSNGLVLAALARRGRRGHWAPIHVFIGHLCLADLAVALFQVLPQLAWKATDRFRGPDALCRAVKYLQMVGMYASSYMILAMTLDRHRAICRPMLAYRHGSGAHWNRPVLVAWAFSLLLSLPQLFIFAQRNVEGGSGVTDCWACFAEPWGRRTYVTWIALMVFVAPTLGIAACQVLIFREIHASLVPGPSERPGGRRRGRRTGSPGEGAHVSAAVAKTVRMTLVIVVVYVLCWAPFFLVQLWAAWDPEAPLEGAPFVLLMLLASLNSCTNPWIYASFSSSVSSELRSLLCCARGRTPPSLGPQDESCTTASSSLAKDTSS

SMILES | inhibition at 0.1 µM | V2 % inhibition @ 100 nM
COc1ccccc1-c1ccc(C(=O)N2Cc3ccc(C(=O)N4CCC(N5CCCC5)CC4)n3Cc3ccccc32)cc1OC [Example 145, {10-[(2,2′-Dimethoxy[1,1′-biphenyl]4-yl)carbonyl]-10,11-dihydro-5H-pyrrolo[2,1-c][1,4]benzodiazepin-3-yl}[4-(1-pyrrolidinyl)-l-piperidinyl]methanone] | – | −5%
COc1ccccc1-c1ccc(C(=O)N2Cc3ccc(C(=O)N4CCC(N5CCCC5)CC4)n3Cc3ccccc32)cc1C [Example 137, {10-[(2′-Methoxy-2-methyl[1,1′-biphenyl]-4-yl)carbonyl]-10,11-dihydro-5H-pyrrolo[2,1-c][1,4]benzodiazepin-3-yl}[4-(1-pyrrolidinyl)-1-piperidinyl]methanone] | -4% | –
COc1cccc(-c2ccc(C(=O)N3Cc4ccc(C(=O)N5CCC[C@H]5CN5CCCC5)n4Cc4ccccc43)cc2OC)c1 [Example 270, {10-[(2,3′-Dimethoxy[1,1′-biphenyl]-4-yl)carbonyl]-10,11-dihydro-5H-pyrrolo[2,1-c][1,4]benzodiazepin-3-yl}[(2S)-2-(1-pyrrolidinylmethyl)pyrrolidinyl]methanone] | – | 25%
COc1cc(C(=O)N2Cc3ccc(C(=O)N4CC[C@@H](N(C)C)C4)n3Cc3ccccc32)ccc1-c1cccc2ccccc12 [Example 276, [(3R)-3-(Dimethylamino)pyrrolidinyl]{10-[3-methoxy-4-(1-naphthyl)benzoyl]-10,11-dihydro-5H-pyrrolo[2,1-c][1,4]benzodiazepin-3-yl}methanone] | – | −3%
COc1cc(C(=O)N2Cc3ccc(C(=O)NCCCn4ccnc4)n3Cc3ccccc32)ccc1-c1ccccc1C [Example 128, N-[3-(1H-Imidazol-1-yl)propyl]-10-[(2-methoxy-2′-methyl[1,1′-biphenyl]-4-yl)carbonyl]-10,11-dihydro-5H-pyrrolo[2,1-c][1,4]benzodiazepine-3-carboxamide] | 17% | –
COc1cccc(-c2ccc(C(=O)N3Cc4ccc(C(=O)N5CCN(CCN(C)C)CC5)n4Cc4ccccc43)cc2C)c1 [Example 199, {4-[2-(Dimethylamino)ethyl]-1-piperazinyl{}10-[(3′-methoxy-2-methyl[1,1′-biphenyl]-4-yl)carbonyl]-10,11-dihydro-5H-pyrrolo[2,1-c][1,4]benzodiazepin-3-yl}methanone] | – | 6%

More lines, main results first:

inhibition at 0.1 µM | SMILES | V2 % inhibition @ 100 nM
11% | Cc1ccccc1-c1ccc(C(=O)N2Cc3ccc(C(=O)NCCN4CCCCC4)n3Cc3ccccc32)cc1 [Example 153, 10-[(2′-Methyl[1,1′-biphenyl]-4-yl)carbonyl]-N-[2-(1-piperidinyl)ethyl]-10,11-dihydro-5H-pyrrolo[2,1-c][1,4]benzodiazepine-3-carboxamide] | –
18% | Cc1ccccc1-c1ccc(C(=O)N2Cc3ccc(C(=O)NCCN4CCCCC4)n3Cc3ccccc32)cc1C [Example 150, 10-[(2,2′-Dimethyl[1,1′-biphenyl]-4-yl)carbonyl]-N-[2-(1-piperidinyl)ethyl]-10,11-dihydro-5H-pyrrolo[2,1-c][1,4]benzodiazepine-3-carboxamide] | –
12% | Cc1ccccc1-c1ccc(C(=O)N2Cc3ccc(C(=O)N4CCC(N5CCCCC5)CC4)n3Cc3ccccc32)cc1 [Example 115, {10-[(2′-Methyl[1,1′-biphenyl]-4-yl)carbonyl]-10,11-dihydro-5H-pyrrolo[2,1-c][1,4]benzodiazepin-3-yl}[4-(1-piperidinyl)-1-piperidinyl]methanone] | –
20% | COc1ccccc1-c1ccc(C(=O)N2Cc3ccc(C(=O)NCCN4CCCCC4)n3Cc3ccccc32)cc1C [Example 149, 10-[(2′-Methoxy-2-methyl[1,1′-biphenyl]-4-yl)carbonyl]-N-[2-(1-piperidinyl)ethyl]-10,11-dihydro-5H-pyrrolo[2,1-c][1,4]benzodiazepine-3-carboxamide] | –
